# Reference: PubChem BioAssay (NCI)
#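 Grown in 96-well plates, cells were treated for 48 hours with each compound at five concentrations. Insufficient inhibition: endpoint recorded as highest concentration tested. At the GI50, growth is halved. The concentration for full growth arrest is given as TGI.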
# What was measured:
# Assay in all cases: NCI-60 cell line screen, 48 h
# [1] = test system: 786-0 renal
# [2] = test system: A498 renal
# [3] = test system: A549 NSCLC
# [4] = test system: ACHN renal
# [5] = test system: BT-549 breast
# [6] = test system: CAKI-1 renal
# [7] = test system: CCRF-CEM leukemia
# [8] = test system: COLO 205 colon
# [9] = test system: DU-145 prostate
# [10] = test system: EKVX NSCLC
# [11] = test system: HCC-2998 colon
# [12] = test system: HCT-116 colon
# [13] = test system: HCT-15 colon
# [14] = test system: HL-60(TB) leukemia
# [15] = test system: HOP-62 NSCLC
# [16] = test system: HOP-92 NSCLC
# [17] = test system: HS 578T breast
# [18] = test system: HT29 colon
# [19] = test system: IGROV1 ovarian
# [20] = test system: K-562 leukemia
# [21] = test system: KM12 colon
# [22] = test system: LOX IMVI melanoma
# [23] = test system: M14 melanoma
# [24] = test system: MALME-3M melanoma
# [25] = test system: MCF7 breast
# [26] = test system: MDA-MB-231 breast
# [27] = test system: MDA-MB-435
# [28] = test system: MOLT-4 leukemia
# [29] = test system: NCI-H226 lung
# [30] = test system: NCI-H23 lung
# [31] = test system: NCI-H460 lung
# [32] = test system: NCI-H522 lung
# [33] = test system: NCI/ADR-RES ovarian
# [34] = test system: OVCAR-3 ovarian
# [35] = test system: OVCAR-4 ovarian
# [36] = test system: OVCAR-5 ovarian
# [37] = test system: OVCAR-8 ovarian
# [38] = test system: PC-3 prostate
# [39] = test system: RPMI-8226 leukemia
# [40] = test system: RXF 393 renal
# [41] = test system: SF-268 CNS
# [42] = test system: SF-295 CNS
# [43] = test system: SF-539 CNS
# [44] = test system: SK-MEL-2 melanoma
# [45] = test system: SK-MEL-28 melanoma
# [46] = test system: SK-MEL-5 melanoma
# [47] = test system: SK-OV-3 ovarian
# [48] = test system: SN12C renal
# [49] = test system: SNB-19 CNS
# [50] = test system: SNB-75 CNS
# [51] = test system: SR leukemia
# [52] = test system: SW-620 colon
# [53] = test system: T-47D breast
# [54] = test system: TK-10 renal
# [55] = test system: U251 CNS
# [56] = test system: UACC-257 melanoma
# [57] = test system: UACC-62 melanoma
# [58] = test system: UO-31 renal
smiles,measurement,setting,value
Cn1c(=O)n(CCCO)c(=O)c2c1nc(Oc1cccc(OC(F)(F)F)c1)n2Cc1ccc(Cl)cc1,GI50,[1],12.5 µM
same,TGI,[1],27.4 µM
same,GI50,[2],13.8 µM
same,TGI,[2],26.9 µM
same,GI50,[3],11.2 µM
same,TGI,[3],25.5 µM
same,GI50,[4],10.7 µM
same,TGI,[4],23.4 µM
same,GI50,[5],12.9 µM
same,TGI,[5],26.4 µM
same,GI50,[6],9.05 µM
same,TGI,[6],22.6 µM
same,GI50,[7],14.6 µM
same,TGI,[7],39.8 µM
same,GI50,[8],12.6 µM
same,TGI,[8],30.3 µM
same,GI50,[9],13.2 µM
same,TGI,[9],27.5 µM
same,GI50,[10],12.4 µM
same,TGI,[10],32.2 µM
same,GI50,[11],15 µM
same,TGI,[11],33.9 µM
same,GI50,[12],5.46 µM
same,TGI,[12],19.6 µM
same,GI50,[13],10.2 µM
same,TGI,[13],28.7 µM
same,GI50,[14],5.78 µM
same,TGI,[14],22.9 µM
same,GI50,[15],16 µM
same,TGI,[15],33.3 µM
same,GI50,[16],11 µM
same,TGI,[16],24.5 µM
same,GI50,[17],16.3 µM
same,TGI,[17],43.4 µM
same,GI50,[18],8.01 µM
same,TGI,[18],23.2 µM
same,GI50,[19],14.2 µM
same,TGI,[19],31.9 µM
same,GI50,[20],7.72 µM
same,TGI,[20],68.8 µM
same,GI50,[21],13.5 µM
same,TGI,[21],32.4 µM
same,GI50,[22],12 µM
same,TGI,[22],28.8 µM
same,GI50,[23],11.8 µM
same,TGI,[23],27.4 µM
same,GI50,[24],15.7 µM
same,TGI,[24],31.6 µM
same,GI50,[25],4.77 µM
same,TGI,[25],22.2 µM
same,GI50,[26],14.6 µM
same,TGI,[26],32.1 µM
same,GI50,[27],11.8 µM
same,TGI,[27],27.2 µM
same,GI50,[28],5.21 µM
same,TGI,[28],21.7 µM
same,GI50,[29],16.8 µM
same,TGI,[29],38.4 µM
same,GI50,[30],15.8 µM
same,TGI,[30],37.6 µM
same,GI50,[31],8.5 µM
same,TGI,[31],23.9 µM
same,GI50,[32],6.06 µM
same,TGI,[32],23.2 µM
same,GI50,[33],11.4 µM
same,TGI,[33],33.4 µM
same,GI50,[34],11.4 µM
same,TGI,[34],25.2 µM
same,GI50,[35],13.2 µM
same,TGI,[35],30.4 µM
same,GI50,[36],13.1 µM
same,TGI,[36],26.3 µM
same,GI50,[37],14.4 µM
same,TGI,[37],37.6 µM
same,GI50,[38],13.7 µM
same,TGI,[38],29.3 µM
same,GI50,[39],10.4 µM
same,TGI,[39],51.3 µM
same,GI50,[40],11.2 µM
same,TGI,[40],27.3 µM
same,GI50,[41],8.54 µM
same,TGI,[41],24.5 µM
same,GI50,[42],13 µM
same,TGI,[42],28.5 µM
same,GI50,[43],12.9 µM
same,TGI,[43],26.9 µM
same,GI50,[44],14.7 µM
same,TGI,[44],32.6 µM
same,GI50,[45],14.1 µM
same,TGI,[45],29.5 µM
same,GI50,[46],16 µM
same,TGI,[46],30.9 µM
same,GI50,[47],18.1 µM
same,TGI,[47],34 µM
same,GI50,[48],13 µM
same,TGI,[48],29.8 µM
same,GI50,[49],18.4 µM
same,TGI,[49],40.1 µM
same,GI50,[50],11.8 µM
same,TGI,[50],26.7 µM
same,GI50,[51],3.79 µM
same,TGI,[51],18.2 µM
same,GI50,[52],13.1 µM
same,TGI,[52],31.2 µM
same,GI50,[53],3.78 µM
same,TGI,[53],21 µM
same,GI50,[54],14.7 µM
same,TGI,[54],30.1 µM
same,GI50,[55],12.5 µM
same,TGI,[55],29.8 µM
same,GI50,[56],17.5 µM
same,TGI,[56],34.5 µM
same,GI50,[57],13.2 µM
same,TGI,[57],29.1 µM
same,GI50,[58],3.91 µM
same,TGI,[58],17.7 µM
